Test results published in article PMC5564600 (Oncotarget, 2017).

Tests used:
Assay in all cases: biochemical
Assay type in all cases: binding
[1] = target: T1, panel of 442 kinases (Homo sapiens, UniProt O94921); conditions: kinase PFTK1; for remaining activity at 1 µM: read-out: % of control at 1 µM
T1 construct: purchased Ambit Biosciences (scanMAXX KINOMEscan)

[2] = target: T2, panel of 442 kinases (Homo sapiens, UniProt Q9UM73); conditions: ALK; for remaining activity at 1 µM: read-out: % of control at 1 µM
T2 construct: purchased Ambit Biosciences (scanMAXX KINOMEscan)

[3] = target: T3, panel of 442 kinases (Homo sapiens, UniProt Q16512); conditions: kinase PKN1; for remaining activity at 1 µM: read-out: PKN1 (% of control at 1 µM)
T3 construct: purchased Ambit Biosciences (scanMAXX KINOMEscan)

[4] = target: T4, panel of 442 kinases (Homo sapiens, UniProt O60285); conditions: ARK5; for remaining activity at 1 µM: read-out: % of control at 1 µM
T4 construct: purchased Ambit Biosciences (scanMAXX KINOMEscan)
T4 sequence (O60285 1-661): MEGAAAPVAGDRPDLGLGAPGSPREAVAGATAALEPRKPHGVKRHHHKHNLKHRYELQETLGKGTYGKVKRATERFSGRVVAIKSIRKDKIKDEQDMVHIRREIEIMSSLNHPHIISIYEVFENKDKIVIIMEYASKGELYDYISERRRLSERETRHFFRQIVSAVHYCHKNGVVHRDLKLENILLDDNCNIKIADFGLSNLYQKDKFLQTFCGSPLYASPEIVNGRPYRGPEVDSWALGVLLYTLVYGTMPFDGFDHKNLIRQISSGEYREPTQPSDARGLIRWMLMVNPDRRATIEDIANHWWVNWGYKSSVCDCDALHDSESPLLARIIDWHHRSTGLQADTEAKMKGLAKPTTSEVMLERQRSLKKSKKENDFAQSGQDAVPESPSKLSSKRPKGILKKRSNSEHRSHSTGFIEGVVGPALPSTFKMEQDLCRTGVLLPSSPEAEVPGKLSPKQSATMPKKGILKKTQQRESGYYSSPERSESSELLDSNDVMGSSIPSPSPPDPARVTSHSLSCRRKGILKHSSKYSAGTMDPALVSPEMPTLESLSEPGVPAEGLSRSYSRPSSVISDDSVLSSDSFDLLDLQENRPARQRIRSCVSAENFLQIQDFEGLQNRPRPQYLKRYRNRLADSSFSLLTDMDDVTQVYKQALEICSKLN

[5] = target: T5, panel of 442 kinases (Homo sapiens, UniProt Q8IVH8); conditions: kinase MAP4K3; for remaining activity at 1 µM: read-out: % of control at 1 µM
T5 construct: purchased Ambit Biosciences (scanMAXX KINOMEscan)
T5 sequence (Q8IVH8 1-894): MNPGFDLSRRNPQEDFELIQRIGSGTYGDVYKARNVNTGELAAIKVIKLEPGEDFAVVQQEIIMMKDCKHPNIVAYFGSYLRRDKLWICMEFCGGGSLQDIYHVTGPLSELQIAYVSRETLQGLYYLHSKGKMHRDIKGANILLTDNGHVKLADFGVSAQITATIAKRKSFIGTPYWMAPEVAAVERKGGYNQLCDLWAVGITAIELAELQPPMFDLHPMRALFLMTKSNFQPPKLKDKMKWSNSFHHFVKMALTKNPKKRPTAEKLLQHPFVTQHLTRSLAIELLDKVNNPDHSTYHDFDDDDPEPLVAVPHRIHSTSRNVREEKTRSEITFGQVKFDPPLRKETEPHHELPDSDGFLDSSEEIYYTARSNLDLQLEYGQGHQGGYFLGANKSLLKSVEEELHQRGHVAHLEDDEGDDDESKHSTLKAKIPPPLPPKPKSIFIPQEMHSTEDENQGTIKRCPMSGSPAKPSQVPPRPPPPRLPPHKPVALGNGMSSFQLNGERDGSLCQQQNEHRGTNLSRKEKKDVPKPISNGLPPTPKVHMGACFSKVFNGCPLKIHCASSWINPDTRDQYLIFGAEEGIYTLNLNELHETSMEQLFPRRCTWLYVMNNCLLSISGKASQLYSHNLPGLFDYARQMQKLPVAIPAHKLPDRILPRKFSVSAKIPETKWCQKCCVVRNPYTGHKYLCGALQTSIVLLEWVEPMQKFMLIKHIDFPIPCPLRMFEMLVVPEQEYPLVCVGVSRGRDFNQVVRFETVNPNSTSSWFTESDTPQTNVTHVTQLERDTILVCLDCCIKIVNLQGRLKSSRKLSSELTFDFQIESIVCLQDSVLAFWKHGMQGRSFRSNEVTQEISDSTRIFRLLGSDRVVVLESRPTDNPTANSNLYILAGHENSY

[6] = target: T6, panel of 442 kinases (Homo sapiens, UniProt Q9BX84); conditions: kinase TRPM6; for remaining activity at 1 µM: read-out: TRPM6 (% of control at 1 µM)
T6 construct: purchased Ambit Biosciences (scanMAXX KINOMEscan)

[7] = target: T7, panel of 442 kinases (Homo sapiens, UniProt Q8IU85); conditions: CAMK1D; for remaining activity at 1 µM: read-out: % of control at 1 µM
T7 construct: purchased Ambit Biosciences (scanMAXX KINOMEscan)

[8] = target: T8, panel of 442 kinases (Homo sapiens, UniProt Q5S007); conditions: kinase LRRK2; for remaining activity at 1 µM: read-out: % of control at 1 µM
T8 construct: purchased Ambit Biosciences (scanMAXX KINOMEscan)

[9] = target: T9, panel of 442 kinases (Homo sapiens, UniProt Q00526); conditions: CDK3; for remaining activity at 1 µM: read-out: % of control at 1 µM
T9 construct: purchased Ambit Biosciences (scanMAXX KINOMEscan)

[10] = 10 µM, read-out: % of control at 10 µM

T3 sequence (Q16512 whole entry): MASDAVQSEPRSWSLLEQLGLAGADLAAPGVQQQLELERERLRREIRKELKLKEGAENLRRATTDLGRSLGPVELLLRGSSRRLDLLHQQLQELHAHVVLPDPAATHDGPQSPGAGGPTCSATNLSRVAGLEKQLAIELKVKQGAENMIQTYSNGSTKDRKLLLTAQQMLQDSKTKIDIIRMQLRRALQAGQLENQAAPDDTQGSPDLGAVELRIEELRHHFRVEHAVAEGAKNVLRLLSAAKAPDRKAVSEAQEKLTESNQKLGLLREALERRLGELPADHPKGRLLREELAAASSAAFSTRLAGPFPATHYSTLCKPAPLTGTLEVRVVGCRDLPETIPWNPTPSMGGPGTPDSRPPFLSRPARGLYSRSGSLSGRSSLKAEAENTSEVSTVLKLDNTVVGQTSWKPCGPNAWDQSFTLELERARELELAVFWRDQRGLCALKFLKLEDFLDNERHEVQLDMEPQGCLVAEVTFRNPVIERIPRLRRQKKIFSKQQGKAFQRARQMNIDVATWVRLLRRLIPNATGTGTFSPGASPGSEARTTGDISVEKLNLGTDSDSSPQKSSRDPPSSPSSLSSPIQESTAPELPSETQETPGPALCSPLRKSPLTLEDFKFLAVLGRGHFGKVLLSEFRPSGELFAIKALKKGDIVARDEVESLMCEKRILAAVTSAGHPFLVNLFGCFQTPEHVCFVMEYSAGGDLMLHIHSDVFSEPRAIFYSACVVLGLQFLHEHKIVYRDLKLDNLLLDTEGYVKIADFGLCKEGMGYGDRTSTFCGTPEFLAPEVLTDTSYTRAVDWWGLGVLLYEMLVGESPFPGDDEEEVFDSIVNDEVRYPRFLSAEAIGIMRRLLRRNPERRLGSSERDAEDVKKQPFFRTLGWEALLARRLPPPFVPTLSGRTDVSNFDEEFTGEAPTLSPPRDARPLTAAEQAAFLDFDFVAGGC
T8 sequence (Q5S007 whole entry): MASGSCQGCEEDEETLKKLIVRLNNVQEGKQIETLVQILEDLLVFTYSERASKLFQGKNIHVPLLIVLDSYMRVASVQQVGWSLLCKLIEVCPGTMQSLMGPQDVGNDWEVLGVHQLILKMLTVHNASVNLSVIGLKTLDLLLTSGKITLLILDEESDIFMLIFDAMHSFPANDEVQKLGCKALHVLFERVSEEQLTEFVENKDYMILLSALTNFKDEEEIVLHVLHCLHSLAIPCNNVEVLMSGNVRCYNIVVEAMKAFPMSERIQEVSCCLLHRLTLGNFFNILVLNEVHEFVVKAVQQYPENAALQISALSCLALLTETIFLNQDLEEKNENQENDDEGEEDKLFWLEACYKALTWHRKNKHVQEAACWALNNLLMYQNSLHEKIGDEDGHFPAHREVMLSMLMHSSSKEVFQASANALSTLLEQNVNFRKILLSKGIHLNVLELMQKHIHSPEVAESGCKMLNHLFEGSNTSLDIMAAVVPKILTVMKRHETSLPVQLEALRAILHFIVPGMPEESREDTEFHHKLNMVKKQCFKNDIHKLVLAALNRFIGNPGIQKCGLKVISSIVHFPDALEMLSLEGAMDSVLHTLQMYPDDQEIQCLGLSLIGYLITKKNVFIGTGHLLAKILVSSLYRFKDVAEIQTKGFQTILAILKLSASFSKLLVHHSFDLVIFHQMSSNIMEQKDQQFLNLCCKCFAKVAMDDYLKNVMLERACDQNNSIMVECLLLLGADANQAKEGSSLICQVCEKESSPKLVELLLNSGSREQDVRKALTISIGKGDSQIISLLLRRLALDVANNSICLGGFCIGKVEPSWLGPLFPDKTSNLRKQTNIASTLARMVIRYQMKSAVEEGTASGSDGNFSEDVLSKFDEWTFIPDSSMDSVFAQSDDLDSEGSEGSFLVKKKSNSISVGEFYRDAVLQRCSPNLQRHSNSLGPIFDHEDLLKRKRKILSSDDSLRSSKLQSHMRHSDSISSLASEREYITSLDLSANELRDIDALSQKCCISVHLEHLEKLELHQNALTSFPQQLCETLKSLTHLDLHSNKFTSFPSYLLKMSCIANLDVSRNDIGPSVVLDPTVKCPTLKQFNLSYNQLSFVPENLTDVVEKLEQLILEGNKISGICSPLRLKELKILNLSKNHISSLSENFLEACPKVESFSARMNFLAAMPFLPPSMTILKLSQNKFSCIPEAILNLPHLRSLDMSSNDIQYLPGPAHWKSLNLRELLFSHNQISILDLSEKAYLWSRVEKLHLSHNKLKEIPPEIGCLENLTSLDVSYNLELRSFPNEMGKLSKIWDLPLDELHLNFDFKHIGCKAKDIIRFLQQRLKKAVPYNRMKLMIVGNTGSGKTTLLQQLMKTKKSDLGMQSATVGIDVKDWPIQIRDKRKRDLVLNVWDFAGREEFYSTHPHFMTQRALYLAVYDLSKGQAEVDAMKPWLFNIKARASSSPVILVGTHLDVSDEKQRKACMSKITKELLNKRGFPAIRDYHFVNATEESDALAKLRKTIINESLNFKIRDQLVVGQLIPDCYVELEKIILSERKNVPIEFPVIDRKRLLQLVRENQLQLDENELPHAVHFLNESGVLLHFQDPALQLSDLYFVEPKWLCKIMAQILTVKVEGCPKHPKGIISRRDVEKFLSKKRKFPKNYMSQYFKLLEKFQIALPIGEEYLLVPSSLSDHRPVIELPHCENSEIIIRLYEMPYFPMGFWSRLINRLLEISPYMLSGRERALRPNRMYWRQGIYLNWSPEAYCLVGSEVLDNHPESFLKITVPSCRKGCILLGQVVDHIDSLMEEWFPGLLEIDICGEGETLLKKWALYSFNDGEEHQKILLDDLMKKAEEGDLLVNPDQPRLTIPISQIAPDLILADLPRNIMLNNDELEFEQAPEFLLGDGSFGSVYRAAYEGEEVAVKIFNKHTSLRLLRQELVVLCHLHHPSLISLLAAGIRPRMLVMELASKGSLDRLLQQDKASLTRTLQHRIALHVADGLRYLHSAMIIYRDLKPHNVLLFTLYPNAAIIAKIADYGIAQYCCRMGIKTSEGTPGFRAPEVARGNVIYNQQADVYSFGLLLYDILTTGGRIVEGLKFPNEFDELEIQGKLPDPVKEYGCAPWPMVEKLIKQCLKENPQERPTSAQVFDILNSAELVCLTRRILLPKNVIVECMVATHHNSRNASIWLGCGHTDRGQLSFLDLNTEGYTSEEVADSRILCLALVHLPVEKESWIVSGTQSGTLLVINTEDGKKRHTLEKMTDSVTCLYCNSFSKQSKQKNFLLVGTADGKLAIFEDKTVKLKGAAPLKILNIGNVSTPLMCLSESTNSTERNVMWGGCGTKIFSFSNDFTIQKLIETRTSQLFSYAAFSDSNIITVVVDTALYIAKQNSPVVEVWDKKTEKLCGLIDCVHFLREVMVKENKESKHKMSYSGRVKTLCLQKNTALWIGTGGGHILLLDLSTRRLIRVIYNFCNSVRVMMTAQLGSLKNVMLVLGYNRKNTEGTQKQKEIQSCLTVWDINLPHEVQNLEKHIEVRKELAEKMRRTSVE
T1 sequence (O94921 whole entry): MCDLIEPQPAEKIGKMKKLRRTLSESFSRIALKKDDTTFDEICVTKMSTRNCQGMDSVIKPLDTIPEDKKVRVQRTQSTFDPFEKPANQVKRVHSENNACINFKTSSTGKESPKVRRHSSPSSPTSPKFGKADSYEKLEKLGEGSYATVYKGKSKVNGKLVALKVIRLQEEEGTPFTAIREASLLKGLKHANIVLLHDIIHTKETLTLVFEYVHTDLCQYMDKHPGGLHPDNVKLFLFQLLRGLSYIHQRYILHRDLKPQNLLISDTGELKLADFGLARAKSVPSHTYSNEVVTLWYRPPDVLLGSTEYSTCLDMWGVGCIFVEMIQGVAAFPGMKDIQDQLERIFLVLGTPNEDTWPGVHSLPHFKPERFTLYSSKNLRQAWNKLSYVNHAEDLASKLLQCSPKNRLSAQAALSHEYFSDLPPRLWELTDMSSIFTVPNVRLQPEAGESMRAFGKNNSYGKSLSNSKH
T7 sequence (Q8IU85 whole entry): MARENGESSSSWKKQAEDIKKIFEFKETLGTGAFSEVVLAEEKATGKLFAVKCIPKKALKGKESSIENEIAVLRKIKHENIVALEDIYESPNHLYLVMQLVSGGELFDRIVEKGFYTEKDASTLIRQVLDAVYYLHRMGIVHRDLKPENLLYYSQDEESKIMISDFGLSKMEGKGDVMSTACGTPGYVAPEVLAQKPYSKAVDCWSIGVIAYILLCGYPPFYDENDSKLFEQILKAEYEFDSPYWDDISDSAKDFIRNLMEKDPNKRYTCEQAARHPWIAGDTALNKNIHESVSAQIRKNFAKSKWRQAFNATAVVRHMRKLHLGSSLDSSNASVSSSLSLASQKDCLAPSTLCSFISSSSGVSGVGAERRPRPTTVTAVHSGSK
T9 sequence (Q00526 whole entry): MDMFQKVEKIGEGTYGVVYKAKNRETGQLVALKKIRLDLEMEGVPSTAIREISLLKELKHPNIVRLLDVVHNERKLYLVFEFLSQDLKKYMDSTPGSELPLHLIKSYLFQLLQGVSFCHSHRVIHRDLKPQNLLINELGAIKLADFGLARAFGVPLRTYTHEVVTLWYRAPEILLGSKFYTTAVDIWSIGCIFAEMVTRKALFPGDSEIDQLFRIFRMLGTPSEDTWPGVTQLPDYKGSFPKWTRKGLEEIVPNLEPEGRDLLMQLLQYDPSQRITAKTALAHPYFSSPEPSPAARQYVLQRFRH

Compound | remaining activity at 1 µM [1] [%] | remaining activity at 10 µM [1, 10] [%] | remaining activity at 1 µM [2] [%] | remaining activity at 10 µM [2, 10] [%] | remaining activity at 1 µM [3] [%] | remaining activity at 10 µM ([3]; 10 µM, read-out: PKN1 (% of control at 10 µM)) [%] | remaining activity at 1 µM [4] [%] | remaining activity at 10 µM [4, 10] [%] | remaining activity at 1 µM [5] [%] | remaining activity at 10 µM [5, 10] [%] | remaining activity at 1 µM [6] [%] | remaining activity at 10 µM ([6]; 10 µM, read-out: TRPM6 (% of control at 10 µM)) [%] | remaining activity at 1 µM [7] [%] | remaining activity at 10 µM [7, 10] [%] | remaining activity at 1 µM [8] [%] | remaining activity at 10 µM [8, 10] [%] | remaining activity at 1 µM [9] [%] | remaining activity at 10 µM [9, 10] [%]
Nc1cc(C(F)(F)F)c(-c2cc(N3CCOCC3)nc(N3CCOCC3)n2)cn1 [Buparlisib] | 100 | 97 | 100 | 100 | 89 | 100 | 100 | 100 | 93 | 81 | 76 | 75 | 100 | 100 | 80 | 100 | 100 | 100
COc1ncc(-c2ccc3nccc(-c4ccnnc4)c3c2)cc1NS(=O)(=O)c1ccc(F)cc1F [Omipalisib] | 97 |  | 100 |  | 94 |  | 100 |  | 85 |  | 100 |  | 87 |  | 96 |  | 82 | 
FC(F)c1nc2ccccc2n1-c1nc(N2CCOCC2)nc(N2CCOCC2)n1 [ZSTK474, 2-(difluoromethyl)-1-[4,6-di(4-morpholinyl)-1,3,5-triazin-2-yl]-1H-benzimidazole] | 100 |  | 93 |  | 90 |  | 100 |  | 87 |  | 74 |  | 100 |  | 100 |  | 100 | 
Cn1c(=O)n(-c2ccc(C(C)(C)C#N)cc2)c2c3cc(-c4cnc5ccccc5c4)ccc3ncc21 [Dactolisib, 2-methyl-2-[4-(3-methyl-2-oxo-8-quinolin-3-yl-2,3-dihydroimidazo[4,5-c]quinolin-1-yl)-phenyl] propionitrile] | 98 |  | 72 |  | 100 |  | 32 |  | 30 |  | 62 |  | 87 |  | 52 |  | 100 | 
